Laboratory results from patent US6274715A, “Tricyclic erythromycin derivatives” (priority 1997, dated 2001).
In brackets after ≈: the same amount, converted by molar mass.

Legend:
Format in all cases: cell-based
[1] = system: MYCOBACTERIUM SMEGMATIS ATCC 114; test: In vitro antibacterial activity, MIC, BHI agar dilution; details: M. smegmatis ATCC 114, unit assumed
[2] = system: PSEUDOMONAS AERUGINOSA DPHD-2862; test: as above; details: P. aeruginosa DPHD-2862, unit assumed
[3] = system: PSEUDOMONAS AERUGINOSA 5007; test: as above; details: P. aeruginosa 5007, unit assumed
[4] = system: STREPTOCOCCUS PYOGENES PIU 2548; test: as above; details: S. pyogenes PIU 2548, unit assumed
[5] = system: PSEUDOMONAS CEPACIA 296I; test: as above; details: P. cepacia 296I, unit assumed
[6] = system: ESCHERICHIA COLI DC-2; test: as above; details: E. coli DC-2, unit assumed
[7] = system: STREPTOCOCCUS BOVIS A-5169; test: as above; details: S. bovis A-5169, unit assumed
[8] = system: CANDIDA ALBICANS CCH 442; test: as above; details: C. albicans CCH 442, unit assumed
[9] = system: ESCHERICHIA COLI KNK 437; details: E. coli KNK 437; BHI agar; unit assumed
[10] = system: STAPHYLOCOCCUS AUREUS CMX 553; test: In vitro antibacterial activity, MIC, BHI agar dilution; details: S. aureus CMX 553, unit assumed
[11] = system: STAPHYLOCOCCUS AUREUS ATCC 6538P; test: as above; details: S. aureus ATCC 6538P, 35-37° C., 20 to 24 hours, unit assumed
[12] = system: ACINETOBACTER CALCOACETICUS CMX 669; test: as above; details: A. calcoaceticus CMX 669, unit assumed
[13] = system: EN[…] ATCC 8043; test: as above; details: E. faecium ATCC 8043, unit assumed
In short: (§1)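 Agar dilution in BHI: plates inoculated with 1:100 dilutions of organisms (1:10 for Micrococcus and Streptococcus), incubated 20-24 h at 35-37° C, then inspected for the lowest inhibitory concentration against a drug-free growth control.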

[14] = system: STR[…] 508; test: as above; details: S. agalactiae CMX 508, unit assumed
In short: as §1

[15] = system: M[…] ATCC 9341; test: as above; details: M. luteus ATCC 9341, unit assumed
In short: as §1

[16] = system: M[…] ATCC 4698; test: as above; details: M. luteus ATCC 4698, unit assumed
In short: as §1

[17] = system: STAPHYLOCOCCUS AUREUS CMX 642A; test: as above; details: S. aureus CMX 642A, unit assumed
[18] = system: ESCHERICHIA COLI SS; test: as above; details: E. coli SS, unit assumed
[19] = system: KLEBSIELLA PNEUMONIAE ATCC 8045; test: as above; details: K. pneumoniae ATCC 8045, unit assumed
[20] = system: PSEUDOMONAS AERUGINOSA K799/61; test: as above; details: P. aeruginosa K799/61, unit assumed
[21] = system: PROVIDENCIA STUARTII CMX 640; details: P. stuartii CMX 640; BHI agar; unit assumed
[22] = system: ESCHERICHIA COLI JUHL; details: E. coli JUHL; BHI agar; unit assumed
[23] = system: PSEUDOMONAS AERUGINOSA K799/WT; test: In vitro antibacterial activity, MIC, BHI agar dilution; details: P. aeruginosa K799/WT, unit assumed
[24] = system: ESCHERICHIA COLI H560; test: as above; details: E. coli H560, unit assumed
[25] = system: STAPHYLOCOCCUS AUREUS A-5278; test: as above; details: S. aureus A-5278, unit assumed
[26] = system: PSEUDOMONAS AERUGINOSA DPHD-5263; test: as above; details: P. aeruginosa DPHD-5263, unit assumed
[27] = system: STREPTOCOCCUS PYOGENES 930; test: as above; details: S. pyogenes 930, unit assumed
[28] = system: STAPHYLOCOCCUS AUREUS NCTC10649M; test: as above; details: S. aureus NCTC10649M, unit assumed
[29] = system: PSEUDOMONAS AERUGINOSA BMH10; test: as above; details: P. aeruginosa BMH10, unit assumed
[30] = system: STAPHYLOCOCCUS AUREUS 1775; test: as above; details: S. aureus 1775, unit assumed
[31] = system: STAPHYLOCOCCUS AUREUS A5177; test: as above; details: S. aureus A5177, unit assumed
[32] = system: ENTEROBACTER AEROGENES ATCC 13048; test: as above; details: E. aerogenes ATCC 13048, unit assumed
[33] = system: STAPHYLOCOCCUS EPIDERMIDIS 3519; details: S. epidermidis 3519; BHI agar; unit assumed
[34] = system: STREPTOCOCCUS PYOGENES EES61; test: In vitro antibacterial activity, MIC, BHI agar dilution; details: S. pyogenes EES61, unit assumed

SMILES | MIC [1] [µg/mL] | MIC [2] [µg/mL] | MIC [3] [µg/mL] | MIC [4] [µg/mL] | MIC [5] [µg/mL] | MIC [6] [µg/mL] | MIC [7] [µg/mL] | MIC [8] [µg/mL] | MIC [9] [µg/mL] | MIC [10] [µg/mL] | MIC [11] [µg/mL] | MIC [12] [µg/mL] | MIC [13] [µg/mL] | MIC [14] [µg/mL] | MIC [15] [µg/mL] | MIC [16] [µg/mL] | MIC [17] [µg/mL] | MIC [18] [µg/mL] | MIC [19] [µg/mL] | MIC [20] [µg/mL] | also measured
CC[C@H]1OC(=O)[C@H](C)C(=O)[C@H](C)[C@@H](O[C@@H]2O[C@H](C)C[C@H](N(C)C)[C@H]2O)[C@](C)(OC)C[C@@H](C)C2=NC[C@H](Cc3ccc(O)cc3)N3C(=O)O[C@@]1(C)[C@H]3[C@H]2C [Example 65] | 6.2 (≈ 8.33 µM) | > 100 | > 100 | 1.56 (≈ 2.1 µM) | 100 (≈ 134 µM) | 50 (≈ 67.2 µM) | 0.01 (≈ 0.0134 µM) | > 100 | 100 (≈ 134 µM) | 0.39 (≈ 0.524 µM) | 0.39 (≈ 0.524 µM) | 100 (≈ 134 µM) | 0.1 (≈ 0.134 µM) | 0.02 (≈ 0.0269 µM) | 0.05 (≈ 0.0672 µM) | 0.39 (≈ 0.524 µM) | 0.39 (≈ 0.524 µM) | 0.39 (≈ 0.524 µM) | > 100 | 0.78 (≈ 1.05 µM) | MIC [21]: > 100 µg/mL; MIC [22]: 50 µg/mL (≈ 67.2 µM); MIC [23]: > 100 µg/mL; MIC [24]: 50 µg/mL (≈ 67.2 µM); MIC [25]: > 100 µg/mL; MIC [26]: > 100 µg/mL; MIC [27]: > 100 µg/mL; MIC [28]: 0.39 µg/mL (≈ 0.524 µM); MIC [29]: > 100 µg/mL; MIC [30]: > 100 µg/mL; MIC [31]: 0.39 µg/mL (≈ 0.524 µM); MIC [32]: > 100 µg/mL; MIC [33]: 0.39 µg/mL (≈ 0.524 µM); MIC [34]: 0.02 µg/mL (≈ 0.0269 µM)
CC[C@H]1OC(=O)[C@H](C)C(=O)[C@H](C)[C@@H](O[C@@H]2O[C@H](C)C[C@H](N(C)C)[C@H]2O)[C@](C)(OC)C[C@@H](C)C2=N[C@H](COCc3ccc(C(=O)OC)cc3)CN3C(=O)O[C@@]1(C)[C@H]3[C@H]2C [Example 84] | 0.78 (≈ 0.956 µM) | > 100 | > 100 | 0.2 (≈ 0.245 µM) | > 100 | > 100 | ≤ 0.005 | > 100 | > 100 | 0.2 (≈ 0.245 µM) | 0.2 (≈ 0.245 µM) | > 100 | 0.05 (≈ 0.0613 µM) | 0.02 (≈ 0.0245 µM) | 0.1 (≈ 0.123 µM) | 0.39 (≈ 0.478 µM) | 0.2 (≈ 0.245 µM) | 1.56 (≈ 1.91 µM) | > 100 | 3.1 (≈ 3.8 µM) | MIC [21]: > 100 µg/mL; MIC [22]: > 100 µg/mL; MIC [23]: > 100 µg/mL; MIC [24]: > 100 µg/mL; MIC [25]: > 100 µg/mL; MIC [26]: > 100 µg/mL; MIC [27]: 100 µg/mL (≈ 123 µM); MIC [28]: 0.2 µg/mL (≈ 0.245 µM); MIC [29]: > 100 µg/mL; MIC [30]: > 100 µg/mL; MIC [31]: 0.2 µg/mL (≈ 0.245 µM); MIC [32]: > 100 µg/mL; MIC [33]: 0.39 µg/mL (≈ 0.478 µM); MIC [34]: 0.02 µg/mL (≈ 0.0245 µM)
